Results published in ChEMBL document CHEMBL1921670, “Discovery and optimization of indole and 7-azaindoles as Rho kinase (ROCK) inhibitors (part-II)” (Bioorg Med Chem Lett, 2011).

Assays:
[1] = biological target: Rho-associated protein kinase 1 (Homo sapiens, UniProt Q13464); test: Inhibition of ROCK1
[2] = Inhibition of PKA
[3] = biological target: Rho-associated protein kinase 2 (Homo sapiens, UniProt O75116); test: Inhibition of ROCK2
[4] = biological target: CYP3A4 (Homo sapiens, UniProt P08684); test: Inhibition of CYP3A4 at 10 uM; format: ADME
Chain of CYP3A4 (P08684 whole entry): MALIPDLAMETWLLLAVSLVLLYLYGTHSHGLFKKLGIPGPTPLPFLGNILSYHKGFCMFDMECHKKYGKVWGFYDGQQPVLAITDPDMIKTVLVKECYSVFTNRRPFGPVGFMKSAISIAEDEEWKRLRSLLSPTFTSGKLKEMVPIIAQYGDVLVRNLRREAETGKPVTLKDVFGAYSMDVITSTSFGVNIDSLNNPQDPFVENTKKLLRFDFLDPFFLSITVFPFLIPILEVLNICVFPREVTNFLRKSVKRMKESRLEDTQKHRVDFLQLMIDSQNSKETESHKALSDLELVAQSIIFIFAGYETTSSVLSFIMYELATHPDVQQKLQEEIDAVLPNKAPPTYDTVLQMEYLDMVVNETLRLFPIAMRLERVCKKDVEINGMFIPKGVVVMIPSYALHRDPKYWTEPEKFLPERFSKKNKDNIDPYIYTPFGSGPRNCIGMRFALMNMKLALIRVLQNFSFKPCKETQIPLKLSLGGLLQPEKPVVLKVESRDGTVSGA

[5] = biological target: CYP2C9 (Homo sapiens, UniProt P11712); test: Inhibition of CYP2C9 at 10 uM; format: ADME
Chain of CYP2C9 (P11712 whole entry): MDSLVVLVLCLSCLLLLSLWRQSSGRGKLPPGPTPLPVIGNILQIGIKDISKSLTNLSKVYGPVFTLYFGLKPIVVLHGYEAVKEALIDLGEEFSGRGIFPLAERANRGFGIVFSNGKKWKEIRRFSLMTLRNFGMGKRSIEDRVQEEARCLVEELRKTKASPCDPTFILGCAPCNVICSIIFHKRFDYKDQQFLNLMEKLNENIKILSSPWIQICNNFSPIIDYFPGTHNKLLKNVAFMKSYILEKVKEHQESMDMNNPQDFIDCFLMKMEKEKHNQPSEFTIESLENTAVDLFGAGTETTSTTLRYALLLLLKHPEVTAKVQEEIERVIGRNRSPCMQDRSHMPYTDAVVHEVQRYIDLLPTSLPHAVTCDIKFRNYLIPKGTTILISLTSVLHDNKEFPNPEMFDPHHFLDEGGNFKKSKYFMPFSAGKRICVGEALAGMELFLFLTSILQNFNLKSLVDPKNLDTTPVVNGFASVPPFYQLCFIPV

[6] = biological target: T1, CYP1A2 (Homo sapiens, UniProt P05177); test: Inhibition of CYP1A2 at 10 uM; format: ADME
T1 sequence (P05177 whole entry): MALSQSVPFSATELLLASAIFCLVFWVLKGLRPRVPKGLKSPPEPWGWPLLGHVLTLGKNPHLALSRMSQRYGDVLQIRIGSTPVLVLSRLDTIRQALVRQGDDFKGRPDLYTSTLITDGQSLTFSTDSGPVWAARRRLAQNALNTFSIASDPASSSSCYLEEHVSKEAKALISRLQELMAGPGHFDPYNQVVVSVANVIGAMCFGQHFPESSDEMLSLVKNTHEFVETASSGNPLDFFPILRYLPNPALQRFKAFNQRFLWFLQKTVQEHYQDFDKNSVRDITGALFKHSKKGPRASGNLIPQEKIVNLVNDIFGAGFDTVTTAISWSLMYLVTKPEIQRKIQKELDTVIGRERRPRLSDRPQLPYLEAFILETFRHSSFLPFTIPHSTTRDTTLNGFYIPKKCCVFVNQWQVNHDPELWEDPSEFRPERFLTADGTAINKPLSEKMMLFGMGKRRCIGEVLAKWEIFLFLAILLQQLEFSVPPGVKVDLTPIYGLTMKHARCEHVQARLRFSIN

[7] = Inhibition of myosin light chain bisphosphorylation by cell-based assay
[8] = biological target: CYP2D6 (Homo sapiens, UniProt P10635); test: Inhibition of CYP2D6 at 10 uM; format: ADME
Chain of CYP2D6 (P10635 whole entry): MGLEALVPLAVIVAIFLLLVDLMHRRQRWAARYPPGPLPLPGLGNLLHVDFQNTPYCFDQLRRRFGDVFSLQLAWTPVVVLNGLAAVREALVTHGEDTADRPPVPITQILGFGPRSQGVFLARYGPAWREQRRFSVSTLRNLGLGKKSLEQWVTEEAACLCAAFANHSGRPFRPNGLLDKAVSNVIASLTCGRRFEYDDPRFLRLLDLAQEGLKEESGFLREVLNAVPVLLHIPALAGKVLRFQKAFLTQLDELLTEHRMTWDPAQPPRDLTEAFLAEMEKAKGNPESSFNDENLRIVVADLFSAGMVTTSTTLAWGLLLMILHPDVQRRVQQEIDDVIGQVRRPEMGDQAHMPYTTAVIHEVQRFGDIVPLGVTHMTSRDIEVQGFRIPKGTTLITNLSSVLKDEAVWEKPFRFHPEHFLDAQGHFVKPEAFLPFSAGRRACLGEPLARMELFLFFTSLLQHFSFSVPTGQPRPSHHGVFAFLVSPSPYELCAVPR

[9] = Half life in human liver microsomes; format: ADME, Microsome
[10] = Volume of distribution at steady state in rat at 1 mg/kg, iv or 2 mg/kg, po; format: ADME, organism-based; details: in vivo, read-out: Vdss
[11] = Clearance in rat at 1 mg/kg, iv or 2 mg/kg, po; format: ADME, organism-based; details: in vivo
[12] = Oral bioavailability in rat at 2 mg/kg; format: ADME, organism-based; details: in vivo
[13] = Half life in rat at 1 mg/kg, iv or 2 mg/kg, po; format: ADME, organism-based; details: in vivo
[14] = AUC in rat at 1 mg/kg, iv; format: ADME, organism-based; set-up: dose 1 mg/kg, route intravenous; details: plasma

Chain of Rho-associated protein kinase 2 (O75116 whole entry): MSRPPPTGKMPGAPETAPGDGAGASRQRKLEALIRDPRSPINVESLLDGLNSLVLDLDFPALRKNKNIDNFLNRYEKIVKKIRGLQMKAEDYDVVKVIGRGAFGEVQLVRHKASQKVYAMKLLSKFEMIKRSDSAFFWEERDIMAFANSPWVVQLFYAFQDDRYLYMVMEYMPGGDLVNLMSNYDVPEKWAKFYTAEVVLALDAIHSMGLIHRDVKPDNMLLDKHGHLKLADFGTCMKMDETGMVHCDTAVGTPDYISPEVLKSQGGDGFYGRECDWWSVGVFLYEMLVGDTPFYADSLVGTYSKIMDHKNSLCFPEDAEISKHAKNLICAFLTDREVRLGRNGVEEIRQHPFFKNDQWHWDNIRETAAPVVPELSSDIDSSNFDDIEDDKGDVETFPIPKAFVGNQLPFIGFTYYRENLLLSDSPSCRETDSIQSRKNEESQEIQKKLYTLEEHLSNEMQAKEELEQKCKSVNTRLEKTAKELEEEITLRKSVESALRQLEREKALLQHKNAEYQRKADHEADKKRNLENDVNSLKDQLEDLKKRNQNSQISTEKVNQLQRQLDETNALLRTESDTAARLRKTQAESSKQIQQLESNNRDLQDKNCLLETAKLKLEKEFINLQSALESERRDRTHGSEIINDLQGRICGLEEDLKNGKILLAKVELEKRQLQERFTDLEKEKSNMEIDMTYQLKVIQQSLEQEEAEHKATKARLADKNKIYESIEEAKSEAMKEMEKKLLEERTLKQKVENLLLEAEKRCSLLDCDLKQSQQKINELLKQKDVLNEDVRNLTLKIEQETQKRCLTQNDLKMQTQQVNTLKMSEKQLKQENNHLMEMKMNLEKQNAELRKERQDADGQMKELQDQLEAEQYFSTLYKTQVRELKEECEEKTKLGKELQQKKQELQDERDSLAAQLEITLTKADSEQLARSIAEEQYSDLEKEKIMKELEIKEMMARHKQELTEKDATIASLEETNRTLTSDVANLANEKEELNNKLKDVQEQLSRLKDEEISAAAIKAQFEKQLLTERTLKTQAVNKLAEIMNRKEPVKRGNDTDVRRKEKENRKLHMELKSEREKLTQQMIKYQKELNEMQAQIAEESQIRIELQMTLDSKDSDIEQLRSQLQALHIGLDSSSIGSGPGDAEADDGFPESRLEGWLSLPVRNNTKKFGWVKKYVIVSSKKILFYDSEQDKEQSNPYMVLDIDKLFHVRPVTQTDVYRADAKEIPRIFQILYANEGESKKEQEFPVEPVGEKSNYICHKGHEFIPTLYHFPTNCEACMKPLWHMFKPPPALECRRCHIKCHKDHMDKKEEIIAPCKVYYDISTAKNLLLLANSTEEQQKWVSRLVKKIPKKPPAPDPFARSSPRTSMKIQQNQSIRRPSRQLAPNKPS
Chain of Rho-associated protein kinase 1 (Q13464 whole entry): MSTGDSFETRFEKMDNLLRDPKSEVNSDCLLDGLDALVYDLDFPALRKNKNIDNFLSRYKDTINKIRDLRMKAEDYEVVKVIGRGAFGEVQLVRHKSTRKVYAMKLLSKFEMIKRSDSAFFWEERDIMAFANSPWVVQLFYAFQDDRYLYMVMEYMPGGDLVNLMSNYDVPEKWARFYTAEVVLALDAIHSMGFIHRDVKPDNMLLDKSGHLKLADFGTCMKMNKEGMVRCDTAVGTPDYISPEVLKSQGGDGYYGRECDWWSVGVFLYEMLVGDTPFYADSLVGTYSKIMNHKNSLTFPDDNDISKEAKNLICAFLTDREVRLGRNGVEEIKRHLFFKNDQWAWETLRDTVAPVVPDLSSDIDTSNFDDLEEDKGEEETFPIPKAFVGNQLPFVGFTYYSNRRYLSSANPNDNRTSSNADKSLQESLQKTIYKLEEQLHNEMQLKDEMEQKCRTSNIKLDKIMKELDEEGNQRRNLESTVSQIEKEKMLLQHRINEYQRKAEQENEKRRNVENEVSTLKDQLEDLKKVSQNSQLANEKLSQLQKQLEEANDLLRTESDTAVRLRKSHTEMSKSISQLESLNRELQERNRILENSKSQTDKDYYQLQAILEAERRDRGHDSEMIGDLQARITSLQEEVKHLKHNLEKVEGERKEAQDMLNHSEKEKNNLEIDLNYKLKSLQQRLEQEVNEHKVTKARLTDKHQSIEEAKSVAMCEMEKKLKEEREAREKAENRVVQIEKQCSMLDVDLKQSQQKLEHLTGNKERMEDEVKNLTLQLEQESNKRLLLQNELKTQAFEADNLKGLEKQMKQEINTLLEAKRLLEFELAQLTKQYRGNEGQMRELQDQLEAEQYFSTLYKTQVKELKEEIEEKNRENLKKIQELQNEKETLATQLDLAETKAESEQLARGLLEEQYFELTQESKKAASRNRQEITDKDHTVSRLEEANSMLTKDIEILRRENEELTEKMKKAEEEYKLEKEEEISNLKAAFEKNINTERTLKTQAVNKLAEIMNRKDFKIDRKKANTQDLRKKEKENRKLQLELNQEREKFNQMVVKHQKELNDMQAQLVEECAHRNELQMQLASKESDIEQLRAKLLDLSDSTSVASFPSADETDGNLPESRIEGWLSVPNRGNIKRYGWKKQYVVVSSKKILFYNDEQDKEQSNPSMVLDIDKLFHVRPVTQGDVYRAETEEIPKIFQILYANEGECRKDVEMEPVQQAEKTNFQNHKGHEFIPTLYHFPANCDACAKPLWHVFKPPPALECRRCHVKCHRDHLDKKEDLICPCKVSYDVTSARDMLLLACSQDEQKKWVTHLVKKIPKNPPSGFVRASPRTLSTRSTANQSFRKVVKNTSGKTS

| SMILES | IC50 [1] | IC50 [2] | IC50 [3] | inhibition at 10 µM [4] | inhibition at 10 µM [5] | inhibition at 10 µM [6] | IC50 [7] | inhibition at 10 µM [8] | half-life [9] | Vd [10] | clearance [11] | bioavailability [12] | half-life [13] | AUC [14] |
| --- | --- | --- | --- | --- | --- | --- | --- | --- | --- | --- | --- | --- | --- | --- |
| COc1cccc(CN(CCCN2CCN(C)CC2)C(=O)c2c[nH]c3nc(-c4cn[nH]c4)ccc23)c1 | 260 nM | 3700 nM | 62 nM |  |  |  |  |  |  |  |  |  |  |  |
| COc1cccc(CN(CC[N+]2(C)CCCC2)C(=O)c2cc3ccc(-c4cn[nH]c4)nc3n2C)c1 | 6600 nM | 3700 nM | 1900 nM |  |  |  |  |  |  |  |  |  |  |  |
| COc1cccc(CNC(=O)c2cc3ccc(-c4cn[nH]c4)cc3n2CCCO)c1 | 88 nM | 1800 nM | 24 nM |  |  |  |  |  |  |  |  |  |  |  |
| COc1cccc(CNC(=O)c2cn(CCN3CCCC3)c3nc(-c4cn[nH]c4)ccc23)c1 | 89 nM | > 20000 nM | 8 nM | 44% | 51% | 9% |  | 69% | 21 min | 10 L/kg | 114 mL/min/kg | 0% | 90 min | 0.3 µM·h |
| COc1cccc(CN(CCN2CCCC2)C(=O)c2cc3ccc(-c4cn[nH]c4)cc3[nH]2)c1 | 62 nM | 1640 nM | 11 nM | 59% | 65% | -2% | 206 nM | 78% | 49 min |  |  |  |  |  |
| COc1cccc(CN(CCN2CCCC2)C(=O)c2cc3ccc(-c4cn[nH]c4)nc3n2C)c1 | 1000 nM | 2200 nM | 220 nM |  |  |  |  |  |  |  |  |  |  |  |
| COc1cccc(CN(CCN2CCCC2)C(=O)c2cc3ccc(-c4cn[nH]c4)nc3[nH]2)c1 | 121 nM | > 20000 nM | 18 nM | 43% | 26% | 12% |  | 52% | 21 min |  |  |  |  |  |
| COc1cccc(CN(C)C(=O)c2cc3ccc(-c4cn[nH]c4)cc3n2CCN(C)C)c1 | 6900 nM | > 20000 nM | 2300 nM |  |  |  |  |  |  |  |  |  |  |  |
| COc1cccc(CNC(=O)c2cc3ccc(-c4cn[nH]c4)nc3n2CC2CC2)c1 | 280 nM | 5000 nM | 150 nM |  |  |  |  |  |  |  |  |  |  |  |
| COc1cccc(CN(CCN(C)C)C(=O)c2cn(CCN3CCCC3)c3cc(-c4cn[nH]c4)ccc23)c1 | 8900 nM | > 20000 nM | 2800 nM |  |  |  |  |  |  |  |  |  |  |  |
| COc1cccc(CN(C)C(=O)c2cc3ccc(-c4cn[nH]c4)cc3n2C)c1 | 1100 nM | > 20000 nM | 200 nM |  |  |  |  |  |  |  |  |  |  |  |

Now those with a lower IC50 [1], led by results:

| IC50 [1] | IC50 [2] | IC50 [3] | inhibition at 10 µM [4] | inhibition at 10 µM [5] | inhibition at 10 µM [6] | IC50 [7] | inhibition at 10 µM [8] | half-life [9] | SMILES | Vd [10] | clearance [11] | bioavailability [12] | half-life [13] | AUC [14] |
| --- | --- | --- | --- | --- | --- | --- | --- | --- | --- | --- | --- | --- | --- | --- |
| 13 nM | 2810 nM | 1 nM | 31% | 28% | 4% | 53 nM | 31% | 14 min | COc1cccc(CN(CCCN(C)C)C(=O)c2cn(C)c3cc(-c4cn[nH]c4)ccc23)c1 |  |  |  |  |  |
| < 1 nM | 720 nM | < 1 nM | 68% | 77% | -2% |  | 23% | 13 min | COc1cccc(CNC(=O)c2cn(C)c3nc(-c4cn[nH]c4)ccc23)c1 |  |  |  |  |  |
| 46 nM | 1600 nM | 10 nM |  |  |  |  |  |  | COc1cccc(CN(CCCN(C)C)C(=O)c2cc3ccc(-c4cn[nH]c4)cc3[nH]2)c1 |  |  |  |  |  |
| 3 nM | 680 nM | < 1 nM | 70% | 93% | 23% | 17 nM | 58% | 4 min | COc1cccc(CN(C)C(=O)c2cn(C)c3cc(-c4cn[nH]c4)ccc23)c1 |  |  |  |  |  |
| 30 nM | > 20000 nM | 6 nM | 56% | 91% | -5% |  | 25% | 9 min | COc1cccc(CN(C(=O)c2c[nH]c3nc(-c4cn[nH]c4)ccc23)C2CC2)c1 |  |  |  |  |  |
| 27 nM | 570 nM | 4 nM | 27% | 83% | 32% | 25 nM | 52% | 24 min | COc1cccc(CN(C)C(=O)c2cc3ccc(-c4cn[nH]c4)nc3[nH]2)c1 |  |  |  |  |  |
